For test [1], the system named is primary human fibroblasts derived from IPF patients (LL29 cells). As to the kind of experiment: Inhibition of fibrosis: TGF-β1-treated primary human fibroblasts from IPF patients (LL29), αSMA staining. The settings on record: Fibroblast, 96 h, TGF-β1 20 ng/mL, 4 days, % αSMA-positive cells. The class given is cell-based. The source says: The above synthesized compounds were screened using primary human fibroblasts (derived from IPF patients) treated with TGF-β1 to determine their ability to inhibit the fibrotic process.
Primary human fibroblasts derived from IPF patients (LL29 cells) [^1Xiaoqiu Liu, et. al., “Fibrotic Lung Fibroblasts Show Blunted Inhibition by cAMP Due to Deficient cAMP Response Element-Binding Protein Phosphorylation”, Journal of Pharmacology and Experimental Therapeutics (2005), 315(2), 678-687; ^2Watts, K. L., et. al., “RhoA signaling modulates cyclin D1 expression in human lung fibroblasts; implications for idiopathic pulmonary fibrosis”, Respiratory Research (2006), 7(1), 88] were obtained from American Type Culture Collection (ATCC) and expanded in F12 medium supplemented with 15% Fetal Bovine Serum and Penicillin/Streptomycin.
Each compound was dissolved in DMSO as a 10 mM stock and used to prepare compound source plates. Serial dilution (1:2, 11-point dose-response curves from 10 μM to 1.87 nM) and compound transfer was performed using the ECHO 550 (Labcyte, Sunnyvale, Calif.) into 384-well clear bottom assay plates (Greiner Bio-One) with appropriate DMSO backfill for a final DMSO concentration of 0.1%. LL29 cells were plated at 1,500 cells/well in 80 μl/well F12 medium supplemented with 1% Fetal Bovine Serum. One hour after addition of the cells, TGF-β1 (Peprotech; 20 ng/mL) was added to the plates to induce fibrosis (ref 1 and 2 above). Wells treated with TGF-β1 and containing DMSO were used as controls. Cells were incubated at 37° C. and 5% CO2 for 4 days. Following incubation for 4 days, SYTOX green nucleic acid stain (Life Technologies [Thermo Fisher Scientific]) was added to the wells at a final concentration of 1 uM and incubated at room temperature for 30 min. Cells were then fixed using 4% formaldehyde (Electron Microscopy Sciences), washed 3 times with PBS followed by blocking and permeabilization using 3% Bovine Serum Albumin (BSA; Sigma) and 0.3% Triton X-100 (Sigma) in PBS. Cells were then stained with antibody specific to α-smooth muscle actin (αSMA; Abcam) (ref 1 and 2 above) in 3% Bovine Serum Albumin (BSA; Sigma) and 0.3% Triton X-100 (Sigma) in PBS, and incubated overnight at 4° C. Cells were then washed 3 times with PBS, followed by incubation with Alexa Flor-647 conjugated secondary antibody (Life Technologies [Thermo Fisher Scientific]) and DAPI at room temperature for 1 hour. Cells were then washed 3 times with PBS and plates were sealed for imaging. αSMA staining was imaged by excitation at 630 nm and emission at 665 nm and quantified using the Compartmental Analysis program on the CellInsight CX5 (Thermo Scientific). Dead or apoptotic cells were excluded from analysis based on positive SYTOX green staining. % of total cells positive for αSMA were counted in each well and normalized to the average of 11 wells treated with TGF-β1 on the same plate using Dotmatics' Studies Software. The normalized averages (fold change over untreated) of 3 replicate wells for each compound concentration were used to create dose-responses curves and EC50 values were calculated using non-linear regression curve fit in the Dotmatics' Studies Software. The EC50 values are reported.

For test [2], the system named is Wnt activity (Sp5-Luc reporter, SW480 colon carcinoma cells). As to the kind of experiment: Screening assay for Wnt activity: Sp5-Luc reporter gene assay in SW480 cells. Type of test: cell-based. The settings on record: Homo sapiens, 42 h incubation, luminescence. The source says:
The screening assay for Wnt activity is described as follows. Reporter cell lines can be generated by stably transducing cancer cell lines (e.g., colon cancer) or primary cells (e.g., IEC-6 intestinal cells) with a lentiviral construct that includes a Wnt-responsive promoter driving expression of the firefly luciferase gene.
SW480 colon carcinoma cells were transduced with a lentiviral vector expressing luciferase with a human Sp5 promoter consisting of a sequence of eight TCF/LEF binding sites. SW480 cells stably expressing the Sp5-Luc reporter gene and a hygromycin resistance gene were selected by treatment with 150 μg/ml of hygromycin for 7 days. These stably transduced SW480 cells were expanded in cell culture and used for all further screening activities. For Sp5-Luc reporter gene assays, the cells were plated at 10,000 cells/well in 96-well plates with growth medium containing 10% fetal calf serum and incubated overnight at 37° C. and 5% CO2. Each compound was dissolved in DMSO as a 10 mM stock in standard j-vials and used to prepare compound source plates in dose-response format with 3-fold serial dilutions and a 10 mM top concentration. Compound transfer from serially diluted source plates to assay plates containing the cells was accomplished using a pintool (Multimek 96, Beckman equipped with V&P Scientific FP1S50H pins) based liquid handling protocol. This protocol used a slotted pin to transfer 50 nl of compound from a source plate well to an assay plate well containing 50 μl of cells in growth medium. […] Control wells received 50 nl of DMSO treatment for normalization and calculating IC50 values. The treated cells were incubated at 37° C. and 5% CO2 for an additional forty-two hours. Following incubation, the growth medium was removed and 50 μl of BrightGlo luminescence reagent (Promega) was added to each well of the 96-well assay plates. The plates were placed on an orbital shaker for 5 min and then luminescence was quantified on the Victor3 (Perkin Elmer) plate reader. Readings were normalized to DMSO only treated cells, and normalized activities were utilized for IC50 calculations using the dose-response log (inhibitor) vs. response-variable slope (four parameters) nonlinear regression feature available in GraphPad Prism 5.0 or 6.0.
For orientation: In a reporter assay the amount or activity of a reporter protein is the signal.

As usually defined, the pEC50 is −log10 of the EC50, conventionally taken in molar units. Higher therefore signals a low EC50. What is called pIC50 is −log10 of the IC50, conventionally taken in molar units. High values mean a small IC50, low ones a large IC50.

Structures are written as SMILES. pEC50, pIC50: −log10 of the molar value. Bounds are passed on as bounds.

In test [1], `CN(C)c1cncc(-c2ccc3[nH]nc(-c4nc5c(-c6cccs6)nccc5[nH]4)c3c2)c1` [Compound 293, N,N-Dimethyl-5-(3-(4-(thiophen-2-yl)-1H-imidazo[4,5-c]pyridin-2-yl)-1H-indazol-5-yl)pyridin-3-amine] had a negative logarithm of the EC50 (pEC50) of 7.44. In addition, in test [2], the pIC50 was 8.05.

In test [1], `CCC(=O)Nc1cncc(-c2ccc3[nH]nc(-c4nc5c(-c6cccs6)nccc5[nH]4)c3c2)c1` [Compound 287, N-(5-(3-(4-(Thiophen-2-yl)-1H-imidazo[4,5-c]pyridin-2-yl)-1H-indazol-5-yl)pyridin-3-yl)propionamide] showed a pEC50 of 7.21. In test [2], this molecule had a pIC50 of 8.00.

With `Fc1ccc(-c2nccc3[nH]c(-c4n[nH]c5ccc(-c6cncc(CN7CCCC7)c6)cc45)nc23)s1` [Compound 326, 4-(5-Fluorothiophen-2-yl)-2-(5-(5-(pyrrolidin-1-ylmethyl)pyridin-3-yl)-1H-indazol-3-yl)-1H-imidazo[4,5-c]pyridine], in test [1], the pEC50 is 6.03. The pIC50 in test [2] is 6.55.

In the case of `O=C(Nc1cncc(-c2ccc3[nH]nc(-c4nc5c(-c6cccc(F)c6)nccc5[nH]4)c3c2)c1)C1CC1` [Compound 19, N-(5-(3-(4-(3-Fluorophenyl)-1H-imidazo[4,5-c]pyridin-2-yl)-1H-indazol-5-yl)pyridin-3-yl)cyclopropanecarboxamide], the pEC50 in test [1] was 8.05. The molecule also had a pIC50 in test [2] of 9.00.

In test [1], `Cc1ccncc1-c1ccc2[nH]nc(-c3nc4c(-c5cc(F)cc(CNS(C)(=O)=O)c5)nccc4[nH]3)c2c1` [Compound 395, N-(3-Fluoro-5-(2-(5-(4-methylpyridin-3-yl)-1H-indazol-3-yl)-1H-imidazo [4,5-c]pyridin-4-yl)benzyl)methanesulfonamide] gave a pEC50 of 7.59. Further, the pIC50 in test [2] is 7.07.

`CC(C)C(=O)Nc1cncc(-c2ccc3[nH]nc(-c4nc5c(N6CCN(C)CC6)nccc5[nH]4)c3c2)c1` [Compound 217, N-(5-(3-(4-(4-Methylpiperazin-1-yl)-1H-imidazo[4,5-c]pyridin-2-yl)-1H-indazol-5-yl)pyridin-3-yl)isobutyramide]: the pEC50 in test [1] is 5.35. This molecule gave a pIC50 in test [2] of 6.61.

`CN(C)CC(=O)Nc1cncc(-c2ccc3[nH]nc(-c4nc5c(-c6cccc(F)c6)nccc5[nH]4)c3c2)c1` [Compound 2251, 2-(Dimethylamino)-N-(5-(3-(4-(3-fluorophenyl)-1H-imidazo[4,5-c]pyridin-2-yl)-1H-indazol-5-yl)pyridin-3-yl)acetamide] had a pEC50 in test [1] of 7.12. In test [2], this molecule gave a pIC50 of 6.91.

Molecule `CCCCC(=O)Nc1cncc(-c2ccc3[nH]nc(-c4nc5c(-c6cc(F)cc(NCCN(C)C)c6)nccc5[nH]4)c3c2)c1` [Compound 434, N-(5-(3-(4-(3-((2-(Dimethylamino)ethyl)amino)-5-fluorophenyl)-1H-imidazo[4,5-c]pyridin-2-yl)-1H-indazol-5-yl)pyridin-3-yl)pentanamide] gave a pEC50 in test [1] of 6.34. In test [2], this molecule had a pIC50 of 7.80.

For the molecule `CS(=O)(=O)NCc1cc(F)cc(-c2nccc3[nH]c(-c4n[nH]c5ccc(-c6cncc(NC(=O)Cc7ccccc7)c6)cc45)nc23)c1` [Compound 400, N-(5-(3-(4-(3-Fluoro-5-(methylsulfonamidomethyl)phenyl)-1H-imidazo[4,5-c]pyridin-2-yl)-1H-indazol-5-yl)pyridin-3-yl)-2-phenylacetamide], the pEC50 in test [1] is 8.05. The molecule also showed a pIC50 in test [2] of less than 5.00.

Molecule `CC(=O)c1ccc(-c2nccc3[nH]c(-c4n[nH]c5ccc(-c6cncc(NC(=O)C7CCCCC7)c6)cc45)nc23)s1` [Compound 386, N-(5-(3-(4-(5-Acetylthiophen-2-yl)-1H-imidazo[4,5-c]pyridin-2-yl)-1H-indazol-5-yl)pyridin-3-yl)cyclohexanecarboxamide] showed a pEC50 in test [1] of 6.27. Besides, the pIC50 in test [2] is 6.32.

Take `O=C(Nc1cncc(-c2ccc3[nH]nc(-c4nc5c(-c6ccc(F)cc6)nccc5[nH]4)c3c2)c1)C1CCC1` [Compound 46, N-(5-(3-(4-(4-Fluorophenyl)-1H-imidazo[4,5-c]pyridin-2-yl)-1H-indazol-5-yl)pyridin-3-yl)cyclobutanecarboxamide]: the pEC50 in test [1] is 8.05. The pIC50 in test [2] was 8.00.

In turn, `c1cncc(-c2ccc3[nH]nc(-c4nc5c(-c6cccnc6)nccc5[nH]4)c3c2)c1` [Compound 82, 4-(Pyridin-3-yl)-2-(5-(pyridin-3-yl)-1H-indazol-3-yl)-1H-imidazo[4,5-c]pyridine] showed a pEC50 in test [1] of 8.05. The molecule also had a pIC50 in test [2] of 8.10.

`CN(C)c1cncc(-c2ccc3[nH]nc(-c4nc5c(-c6cccc(F)c6)nccc5[nH]4)c3c2)c1` [Compound 7, 5-(3-(4-(3-Fluorophenyl)-1H-imidazo[4,5-c]pyridin-2-yl)-1H-indazol-5-yl)-N,N-dimethylpyridin-3-amine]: the pEC50 in test [1] was 8.05. The pIC50 in test [2] was 8.40.

Regarding `Fc1cccc(-c2nccc3[nH]c(-c4n[nH]c5ccc(-c6ccccn6)cc45)nc23)c1` [Compound 1785, 4-(3-Fluorophenyl)-2-(5-(pyridin-2-yl)-1H-indazol-3-yl)-1H-imidazo[4,5-c]pyridine], the pEC50 in test [1] is 8.05. The pIC50 in test [2] is 6.20.

In test [1], `c1ccc(CNCc2cncc(-c3ccc4[nH]nc(-c5nc6c(-c7ccsc7)nccc6[nH]5)c4c3)c2)cc1` [Compound 257, N-Benzyl-1-(5-(3-(4-(thiophen-3-yl)-1H-imidazo[4,5-c]pyridin-2-yl)-1H-indazol-5-yl)pyridin-3-yl)methanamine] had a pEC50 of 8.05. The molecule further showed a pIC50 in test [2] of 8.15.

With `CC(C)Nc1cncc(-c2ccc3[nH]nc(-c4nc5c(-c6cccnc6)nccc5[nH]4)c3c2)c1` [Compound 90, N-Isopropyl-5-(3-(4-(pyridin-3-yl)-1H-imidazo[4,5-c]pyridin-2-yl)-1H-indazol-5-yl)pyridin-3-amine], the pEC50 in test [1] was 8.05. This molecule gave a pIC50 in test [2] of 8.40.

With `FC1(F)CCN(Cc2cncc(-c3ccc4[nH]nc(-c5nc6c(-c7cccs7)nccc6[nH]5)c4c3)c2)C1` [Compound 311, 2-(5-(5-((3,3-Difluoropyrrolidin-1-yl)methyl)pyridin-3-yl)-1H-indazol-3-yl)-4-(thiophen-2-yl)-1H-imidazo[4,5-c]pyridine], the pEC50 in test [1] was 7.08. This molecule gave a pIC50 in test [2] of 6.49.

The molecule `CC(C)CC(=O)Nc1cncc(-c2ccc3[nH]nc(-c4nc5c(-c6cccc(F)c6)nccc5[nH]4)c3c2)c1` [Compound 2, N-(5-(3-(4-(3-Fluorophenyl)-1H-imidazo[4,5-c]pyridin-2-yl)-1H-indazol-5-yl)pyridin-3-yl)-3-methylbutanamide] had a pEC50 in test [1] of 8.05. The negative logarithm of the IC50 (pIC50) in test [2] is 8.30.

For the origin of these results see patent US10081631B2, “2-(1H-indazol-3-yl)-1H-imidazo[4,5-C]pyridine and therapeutic uses thereof” (Samumed, LLC, priority 2014, dated 2018).
